Assays:
S. Aureus Smith = assay: In vitro antibacterial activity, MIC (modified Autotiter method); type: cell-based, Staphylococcus aureus; settings: 18-20 hours at 37° C.; for MIC: Staphylococcus aureus, 20 h, read-out: MIC S. Aureus Smith
Protocol: (§1) The antibacterial and antifungal activity of representative examples of the compounds of Formula I was determined using a modification of the Autotiter method described by Goss, et al. Applied Microbiology 16 (9) 1,414-1,416 (1968) in which a 1,000 mcg./ml. solution of the test compound is prepared. To the first cup of the Autotray is added 0.1 ml. of the test solution. Activation of the Autotiter initiates a sequence of operations by which 0.05 ml. of the test compound solution is withdrawn from the cup by a Microtiter transfer loop and diluted in 0.05 ml. of sterile water. Following this operation, 0.05 ml. of inoculated double-strength semisynthetic medium (glucose) is added automatically to each cup. The overall operation results in final drug concentrations ranging from 500 to 0.06 mcg./ml. in twofold decrements. […] The compounds were thus tested as solutions against a variety of gram positive and gram negative bacteria including Staphylococcus aureus, Proteus mirabilis, Escherichia coli, Klebsiella pneumoniae, Pseudomonas aeruginosa, Streptococcus pyogenes, and against such fungi as Aspergillus niger, Candida albicans and Trichophyton mentagrophytes.

E. coli 100/B22 = assay: as above; type: cell-based, Escherichia coli; settings: 18-20 hours at 37° C.; for MIC: Escherichia coli, 100/B22, 20 h, read-out: MIC E. coli 100/B22
Protocol: as §1

E. coli AB1932-1 = assay: as above; type: cell-based, Escherichia coli; settings: 18-20 hours at 37° C.; for MIC: Escherichia coli, AB19321, 20 h, read-out: MIC E. coli AB1932-1
Protocol: as §1

E. coli Vogel = assay: as above; type: cell-based, Escherichia coli; settings: 18-20 hours at 37° C.; for MIC: Escherichia coli, 20 h, read-out: MIC E. coli Vogel
Protocol: as §1

K. pneum. 39645 = assay: as above; type: cell-based, Klebsiella pneumoniae; settings: 18-20 hours at 37° C.; for MIC: Klebsiella pneumoniae, 20 h, read-out: MIC K. pneum. 39645
Protocol: as §1

P. mirab. MGH-1 = assay: as above; type: cell-based, Proteus mirabilis; settings: 18-20 hours at 37° C.; for MIC: Proteus mirabilis, 20 h, read-out: MIC P. mirab. MGH-1
Protocol: as §1

Ps. aerug. MGH-2 = assay: as above; type: cell-based, Pseudomonas aeruginosa; settings: 18-20 hours at 37° C.; for MIC: Pseudomonas aeruginosa, 20 h, read-out: MIC Ps. aerug. MGH-2
Protocol: as §1

S. pyogen. C203 = assay: as above; type: cell-based, Streptococcus pyogenes; settings: 18-20 hours at 37° C.; for MIC: Streptococcus pyogenes, 20 h, read-out: MIC S. pyogen. C203
Protocol: as §1

A. niger 16404 = assay: In vitro antifungal activity, MIC (modified Autotiter method); type: cell-based, Aspergillus niger; settings: 18-20 hours at 37° C.; for MIC: Aspergillus niger, 16404, 20 h, read-out: MIC A. niger 16404
Protocol: as §1

C. albicans 10231 = assay: as above; type: cell-based, Candida albicans; settings: 18-20 hours at 37° C.; for MIC: Candida albicans, 10231, 20 h, read-out: MIC C. albicans 10231
Protocol: as §1

C. albicans Wisc. = assay: as above; type: cell-based, Candida albicans; settings: 18-20 hours at 37° C.; for MIC: Candida albicans, 20 h, read-out: MIC C. albicans Wisc.
Protocol: as §1

T. menta. 9129 = assay: as above; type: cell-based, Trichophyton mentagrophytes; settings: 18-20 hours at 37° C.; for MIC: Trichophyton mentagrophytes, 20 h, read-out: MIC T. menta. 9129
Protocol: as §1

Row | SMILES | MIC (S. Aureus Smith) | MIC (E. coli 100/B22) | MIC (E. coli AB1932-1) | MIC (E. coli Vogel) | MIC (K. pneum. 39645) | MIC (P. mirab. MGH-1) | MIC (Ps. aerug. MGH-2) | MIC (S. pyogen. C203) | MIC (A. niger 16404) | MIC (C. albicans 10231) | MIC (C. albicans Wisc.) | MIC (T. menta. 9129) | further results
1 | CCCCCCNc1cc[n+](CCCCCCCC[n+]2ccc(NCCCCCC)cc2)cc1 [Example 32, 1,8-bis-[4-(hexylamino)-1-pyridinium]octane dibromide] | 0.24 µg/mL | 3.9 µg/mL | 1.95 µg/mL | 3.9 µg/mL | 7.8 µg/mL | > 250 µg/mL | 125 µg/mL | 0.49 µg/mL | 7.8 µg/mL | 3.9 µg/mL | 3.9 µg/mL | 7.8 µg/mL | 
2 | c1c[n+](CCCCCCCC[n+]2ccc(NC3CCCCC3)cc2)ccc1NC1CCCCC1 [Example 38, 1,8-bis-[4-(cyclohexylamino)-1-pyridinium]octane dibromide] | 3.9 µg/mL | 62.5 µg/mL | 31.3 µg/mL | 62.5 µg/mL | > 125 µg/mL | > 125 µg/mL | 250 µg/mL | 0.93 µg/mL | 15.6 µg/mL | 31.3 µg/mL | 31.3 µg/mL | 3.9 µg/mL | 
3 | CCCCCCCCNc1cc[n+](CCCCCCC[n+]2ccc(NCCCCCCCC)cc2)cc1 [Example 43, 1,7-bis-[4-(octylamino)-1-pyridinium]heptane dibromide] | 0.5 µg/mL | 1 µg/mL | 1 µg/mL | 1.95 µg/mL | 1 µg/mL | 7.8 µg/mL | 31.3 µg/mL | 1 µg/mL | 7.8 µg/mL | 1.95 µg/mL | 1.95 µg/mL | 1 µg/mL | 
4 | CCCCCCCCNc1cc[n+](CCCCCCCCCCCC[n+]2ccc(NCCCCCCCC)cc2)cc1 [Example 45, 1,12-bis-[4-(octylamino)-1-pyridinium]dodecane dibromide] | 0.5 µg/mL | 1.95 µg/mL | 1.95 µg/mL | 1.95 µg/mL | 1 µg/mL | 1.95 µg/mL | 1.95 µg/mL | 1 µg/mL | 7.8 µg/mL | 1 µg/mL | 3.9 µg/mL | 1 µg/mL | 
5 | CCCCCCCCNc1cc[n+](CCCCCCCCCCCCCC[n+]2ccc(NCCCCCCCC)cc2)cc1 [Example 46, 1,14-bis-[4-(octylamino)-1-pyridinium]tetradecane dibromide] | 1 µg/mL | 3.9 µg/mL | 3.9 µg/mL | 7.8 µg/mL | 7.8 µg/mL | 3.9 µg/mL | 3.9 µg/mL | 1.95 µg/mL | 15.6 µg/mL | 7.8 µg/mL | 7.8 µg/mL | 1.95 µg/mL | 
6 | CCCCCCCCCNc1cc[n+](CCCCCC[n+]2ccc(NCCCCCCCCC)cc2)cc1 [Example 47, 1,6-bis-[4-(nonylamino)-1-pyridinium]-hexane dibromide] | 0.5 µg/mL | 1.95 µg/mL | 1.95 µg/mL | 1 µg/mL | 3.9 µg/mL | 3.9 µg/mL | 15.6 µg/mL | 1 µg/mL |  | 3.9 µg/mL | 1.95 µg/mL | 1 µg/mL | MIC A. niger 16404 (A. niger 16404): 15.6 µg/mL
7 | CCCCCCCCCNc1cc[n+](CCCCCC[n+]2ccc(NCCCCCCCCC)cc2)cc1 [Example 48] |  |  |  |  |  |  |  |  |  |  |  |  | MIC S. Aureus Smith (S. Aureus Smith): 1.0 µg/mL; MIC E. coli 100/B22 (E. coli 100/B22): 1.95 µg/mL; MIC E. coli AB1932-1 (E. coli AB1932-1): 1.95 µg/mL; MIC E. coli Vogel (E. coli Vogel): 1.95 µg/mL; MIC K. pneum. 39645 (K. pneum. 39645): 3.9 µg/mL; MIC P. mirab. MGH-1 (P. mirab. MGH-1): 7.8 µg/mL; MIC Ps. aerug. MGH-2 (Ps. aerug. MGH-2): 15.6 µg/mL; MIC S. pyogen. C203 (S. pyogen. C203): 1.0 µg/mL; MIC A. niger 16404 (A. niger 16404): 3.9 µg/mL; MIC C. albicans 10231 (C. albicans 10231): 1.95 µg/mL; MIC C. albicans Wisc. (C. albicans Wisc.): 1.95 µg/mL; MIC T. menta. 9129 (T. menta. 9129): 1.0 µg/mL
8 | CCCCCCCCCNc1cc[n+](CCCCCCC[n+]2ccc(NCCCCCCCCC)cc2)cc1 [Example 49, 1,7-bis-[4-(nonylamino)-1-pyridinium]heptane dibromide] | 0.5 µg/mL | 1.95 µg/mL | 1.95 µg/mL | 1 µg/mL | 1.95 µg/mL | 3.9 µg/mL | 15.6 µg/mL | 1 µg/mL | 7.8 µg/mL | 1.95 µg/mL | 1.95 µg/mL | 1 µg/mL | 
9 | CCCCCCCCCNc1cc[n+](CCCCCCCCC[n+]2ccc(NCCCCCCCCC)cc2)cc1 [Example 50, 1,9-bis-[4-(nonylamino)-1-pyridinium]nonane dibromide] | 1.95 µg/mL | 1.95 µg/mL | 3.9 µg/mL | 1.95 µg/mL | 3.9 µg/mL | 3.9 µg/mL | 3.9 µg/mL | 1.95 µg/mL | 7.8 µg/mL | 3.9 µg/mL | 3.9 µg/mL | 1.95 µg/mL | 
10 | CCCCCCCCCNc1cc[n+](CCCCCCCCCC[n+]2ccc(NCCCCCCCCC)cc2)cc1 [Example 51, 1,10-bis-[4-(nonylamino)-1-pyridinium]decane dibromide] | 1.95 µg/mL | 3.9 µg/mL | 3.9 µg/mL | 1.95 µg/mL | 3.9 µg/mL | 3.9 µg/mL | 3.9 µg/mL | 1.95 µg/mL | 7.8 µg/mL | 3.9 µg/mL | 3.9 µg/mL | 1.95 µg/mL | 
11 | CCCCCCCCCNc1cc[n+](CCCCCCCCCCCC[n+]2ccc(NCCCCCCCCC)cc2)cc1 [Example 52, 1,12-bis-[4-(nonylamino)1-pyridinium]dodecane dibromide] | 1.95 µg/mL | 3.9 µg/mL | 7.8 µg/mL | 3.9 µg/mL | 3.9 µg/mL | 3.9 µg/mL | 3.9 µg/mL | 1.95 µg/mL | 15.6 µg/mL | 7.8 µg/mL | 7.8 µg/mL | 1.95 µg/mL | 
